According to US7112562B2 (Diatos, S.A., priority 2001, dated 2006):

Test system: Caco-2 cell monolayers
Assay: Trans-epithelial transport of D-[14C]-mannitol and L-[3H]-proline in presence of DPV
Format: cell-based
Conditions: 30 μg/ml
Protocol: Trans-epithelial transport experiments were carried out.

**Q.** “SSRRARRSPRHLGSG (listed as Homo sapiens) [DPV10]” was tested. Which “effect on amounts of D-[14C]-mannitol and L-[3H]-proline associated with the cells at the end of the experiment” value (Caco-2, 8 hours, FIG. 4) did it give?
**A.** did not affect

**Q.** What about the “effect on transport of D-[14C]-mannitol or L-[3H]-proline” value (Caco-2, FIG. 3) of the same sequence?
**A.** did not affect
